Results on three compounds are retold here after patent publication US20050154036A1, “Methods of using zonisamide as an adjunctive therapy for partial seizures” (Eisai Co., Ltd., priority 2004, published 2005).

For series [1] the following is noted: cited from earlier work; for hyperammonemia as adverse effect: literature.
For series [2] the following is noted: human, in vivo. An excerpt:
The pharmacovigilance data that were collected, reviewed and analyzed provided the following information in respect of the incidence of hyperammonemia. A total of 4 cases fulfilled the criteria of potential hyperammonemia cases. These cases were reviewed in detail for evaluation of possible safety signals. Two US cases were reported as either high ammonia levels or increased ammonia. Two Japanese cases were reported as hyperammonemia.
Of these, two (2) cases (both ZON1000262 and ZON1000346) had strong confounding factors and seem to be unrelated to zonisamide, but the possibility of zonisamide involvement cannot be completely excluded. The two cases of hyperammonemia originated from Japan and both involved adult patients. Both cases were serious and described as life-threatening. […]
Estimates of exposure, based upon retail and mail order prescriptions, indicate that the number of unique patients taking zonisamide capsules in the U.S. is about 37,276 (total prescriptions per year/average number of prescriptions per patient per year less a calculated percentage decrease based on estimated annual dropouts) in the time between approval in 2000 and December 2002. […] Similarly, the incidences of NMS estimated herein are unlikely to be higher than calculated. Based on the exposure data and number of hyperammonemia cases, the incidence of hyperammonemia is calculated to be about […].

The next series has as its system sodium channels. To be noted: in vitro; cited from earlier work.
A further series deals with T-type Ca2+ currents. Conditions: in vitro; cited from earlier work.
The subject of series [3] is GABA/benzodiazepine receptor ionophore complex. To be noted: in vitro; cited from earlier work.
For series [4], the system named is cultured mouse spinal cord neurons. Conditions: 10-30 μg/mL; cited from earlier work.
A further series concerns rat hippocampal slices. Conditions: 10-30 μg/mL; cited from earlier work.
In series [5] the test system is dopaminergic and serotonergic neurotransmission. To be noted: in vivo microdialysis; cited from earlier work.
The conditions of series [6]: cited from earlier work.
The subject of the next series is carbonic anhydrase. Conditions: fraction of the inhibition by acetazolamide; cited from earlier work.

On to `CCCC(CCC)C(=O)O` [valproate], for which, in [1], the “hyperammonemia as adverse effect” value is reported as “known to cause hyperammonemia”. In series [1] (since 1979, O'Neil et al. 2002), the “cases of hyperammonemia associated with the drug” value is recorded as “more than 30 cases”.

As to `NC(=O)N1c2ccccc2C=Cc2ccccc21` [carbamazepine], the “hyperammonemia as adverse effect” value in [1] is “known to cause hyperammonemia”.

Turning to `NS(=O)(=O)Cc1noc2ccccc12` [zonisamide, 1,2-benzisoxazole-3-methanesulfonamide], in series [2], the “cases fulfilling the criteria of potential hyperammonemia cases” value is 4 cases and the incidence of hyperammonemia entry is “about 1:1,222,453”. In addition, the “effect on sodium channels” value in the series on sodium channels is given as “blocks sodium channels”. Also, the “effect on voltage-dependent, transient inward currents (T-type Ca2+ currents)” value in the series on T-type Ca2+ currents is listed as “reduces”. Further, in [3], the “binding to the GABA/benzodiazepine receptor ionophore complex” value is recorded as “binds to the GABA/benzodiazepine receptor ionophore complex in an allosteric fashion” and the “changes in chloride flux” value was “does not produce changes in chloride flux”. In series [4], the “postsynaptic GABA or glutamate responses” value is recorded as “without affecting” and the synaptically-driven electrical activity was “suppresses”. In the series with rat hippocampal slices, the “neuronal or glial uptake of [3H]-GABA” value is “without affecting”. Further, in [5], the “dopaminergic and serotonergic neurotransmission” value was “facilitates”. In addition, the hepatic enzyme induction result in series [6] (in vivo) was “not known to be a hepatic enzyme inducer”. Also, in [6] (upon reaching a stable dose or following dosage adjustment), the “time required to achieve steady-state levels” value was “up to two weeks”. In addition, in the series on carbonic anhydrase, the “carbonic anhydrase inhibition compared to acetazolamide” value is 1/50.
